{"source": "patent US20260217701A1", "about": "“SELECTIVE BET INHIBITORS AND USES THEREOF” (Tay Therapeutics Limited, priority 2022, published 2026)", "test_system": "IL-17A", "assay": "IL-17A release from activated human PBMCs (ELISA)", "assay_type": "cell-based", "protocol": "Human PBMCs used to analyze inhibition of CXCL10 were collected from 8 donors, PBMCs used to analyze inhibition of IL-17A were collected from 7 donors, and PBMCs used to analyze inhibition of IL-22 were collected from 6 donors. Compounds were serially diluted in 10 mM DMSO and further diluted in assay media to 100× the required final concentration, of which 2 μL was added to the specified well. […] The cell culture supernatant was collected and levels of IL-17A and IL-22 in the supernatant were assessed by ELISA (Invitrogen).", "note": "“And” between values parts separate entries of the source, which are not always exact repeats. Equal entries are not always repeated. Where two headings read alike, the source gives them in different places."}
{"smiles": "Cn1cc(-c2ccccc2)c(-c2cn(C)c(=O)c3[nH]c(-c4cnn(C(F)(F)F)c4)cc23)cc1=O", "note": "[Compound A, 6-methyl-4-(1-methyl-2-oxo-5-phenyl-1,2-dihydropyridin-4-yl)-2-(1-(trifluoromethyl)-1H-pyrazol-4-yl)-1,6-dihydro-7H-pyrrolo[2,3-c]pyridin-7-one]", "values": [{"measurement": "potency against IL-17A relative to CXCL10", "value": "about 13,000 fold"}, {"measurement": "Biomarker selectivity (IL-17 vs. CXCL10)", "setting": "Average preliminary biomarker assay", "value": 3492, "unit": "Fold"}, {"measurement": "Percent Inhibition Relative to Control (IL-17A)", "setting": "Compound Conc. 0.000137174 μM, Donors 1-7, two values per donor", "value": "30.76% and 39.93% and 12.53% and 17.16% and 22.57% and 38.63% and 4.46% and 42.02% and 55.02* Percent and 40.50% and 25.91% and 19.06% and 25.23% and 32.91%"}, {"measurement": "Percent Inhibition Relative to Control (IL-17A)", "setting": "Compound Conc. 0.000411523 μM, Donors 1-7, two values per donor", "value": "42.92% and 60.88% and 49.48% and 23.24% and 46.54% and 52.23% and 60.62% and 51.01% and 51.11% and 62.34% and 51.68% and 47.46% and 28.29% and 56.37%"}, {"measurement": "Percent Inhibition Relative to Control (IL-17A)", "setting": "Compound Conc. 0.001234568 μM, Donors 1-7, two values per donor", "value": "56.92% and 75.17% and 53.28% and 57.9% and 62.54% and 63.56% and 62.80% and 67.54% and 70.18% and 58.60% and 66.13% and 59.19% and 60.91% and 75.98%"}, {"measurement": "Percent Inhibition Relative to Control (IL-17A)", "setting": "Compound Conc. 0.011111111 μM, Donors 1-7, two values per donor", "value": "75.17% and 74.77% and 72.8%"}, {"measurement": "Percent Inhibition Relative to Control (IL-17A)", "setting": "Compound Conc. 0.033333333 μM, Donors 1-7, two values per donor", "value": "76.69% and 83.98% and 75.68% and 76.46% and 73.03% and 78.96% and 78.00% and 81.52% and 83.08% and 69.43% and 73.08% and 77.7% and 78.81% and 89.99%"}, {"measurement": "Percent Inhibition Relative to Control (IL-17A)", "setting": "Compound Conc. 0.1 μM, Donors 1-7, two values per donor", "value": "80.29% and 80.05% and 78.2% and 79.86% and 80.34% and 80.42% and 83.72% and 86.56% and 80.96% and 85.39% and 77.87% and 84.04% and 85%"}, {"measurement": "Percent Inhibition Relative to Control (IL-17A)", "setting": "Compound Conc. 1.52416E−05 μM, Donors 1-7, two values per donor", "value": "−2.11% and 5.95% and 4.5% and 4.36% and −0.57% and 6.2% and −11.47% and 18.94% and 28.57% and 13.94% and 37.95% and −8.34% and 0.61% and 18.05%"}, {"measurement": "Percent Inhibition Relative to Control (IL-17A)", "setting": "Compound Conc. 4.57247E−05 μM, Donors 1-7, two values per donor", "value": "−1.00% and 28.73% and 7.45% and 18.97% and 13.64% and 16.93% and −0.28% and 32.68% and 27.06% and 28.89% and 20.58% and 2.83% and 7.11% and 42.94%"}, {"measurement": "IC50", "setting": "Homo sapiens, PBMC, Average preliminary biomarker assay, read-out: IL-17A IC50 Mean", "value": 300, "unit": "pM"}, {"measurement": "inhibition at 0.1 µM", "setting": "Homo sapiens, PBMC, Compound Conc. 0.1 μM, Donors 1-7, two values per donor, read-out: Percent Inhibition Relative to Control (IL-17A)", "value": 80.8, "unit": "%"}, {"measurement": "IC50", "setting": "Homo sapiens, PBMC, Preliminary biomarker assay, Test Subject 1, read-out: IL-17A IC50", "value": 200, "unit": "pM"}, {"measurement": "IC50", "setting": "Homo sapiens, PBMC, Preliminary biomarker assay, Test Subject 2, read-out: IL-17A IC50", "value": 300, "unit": "pM"}, {"measurement": "IC50", "setting": "Homo sapiens, PBMC, Preliminary biomarker assay, Test Subject 3, read-out: IL-17A IC50", "value": 400, "unit": "pM"}, {"measurement": "IC50", "setting": "Homo sapiens, PBMC, ELISA, read-out: Selectivity (IC50) IL-17A", "value": 271, "unit": "pM"}, {"measurement": "IC50, inhibition of release of IL-17A", "setting": "human PBMCs, 72 hours", "value": "sub-nanomolar"}, {"measurement": "effectiveness relative to GSK620 in reducing IL-17A, IL-22 and CXCL10", "setting": "preliminary biomarker assays", "value": "more effective than GSK620"}]}
